The values that follow come from PMC7994753, “The Availability of the α7-Nicotinic Acetylcholine Receptor in Early Identification of Vulnerable Atherosclerotic Plaques: A Study Using a Novel ^18F-Label Radioligand PET” (Frontiers in Bioengineering and Biotechnology, 2021).

Data set [1] concerns the target T1, α7nAChR in atherosclerotic plaques (Mus musculus, UniProt P49582).
T1 construct: superimposed on the high uptake region in carotid arteries of ApoE-/-mice; from tissue; host or cells: carotid arteries / atherosclerotic plaques of living ApoE-/- mice and normal mice
As to the kind of experiment: Micro-PET/CT imaging of carotid atherosclerotic plaques. The format is in vivo, ApoE-/-mice and normal mice. An excerpt:
ApoE-/-mice (n = 6, weight 25–33 g) and normal mice (n = 6, weight 25–33g) were purchased from Qingzilan Technology Co., Ltd (Nanjing, China). After 1 week of feeding with common feed, the selected ApoE-/-mice were fed with western diet, containing 21% fat and 0.15% cholesterol content, with a high-fat/high-cholesterol content for 9–10 weeks and subjected to micro-PET/CT imaging. The tissues were used for red staining and immunohistochemistry experiments. The normal mice served as controls for micro-PET/CT imaging and their tissues for immunohistochemistry. All mice were kept in a temperature-controlled environment with a 12 h light/dark cycle with free access to food and water. Animal care and experimental procedures were conducted in compliance with the Helsinki Declaration and approved by Fuwai hospital animal care committee.
When the animal models were 10 and 11 weeks old, the micro-PET/CT imaging were conducted. An Inveon small animal PET/CT scanner (Siemens,Germany) was used to perform the scans. A total volume of 5.56 MBq (150 μCi) of [^18F]YLF-DW was injected into six ApoE-/-mice and six normal mice by the tail veins, and the animal models were anesthetized with 2% isoflurane through inhalation. We performed PET/CT dynamic scanning. After screening, the acquisition was performed at 1 h after tail vein injections. The micro-PET/CT was initially performed with the following parameters: energy peak, 511 keV; window width, 3.5 E0 SUV-bw; resolution, 0.775 mm/pixel; and matrix, 128 × 128. Each mouse required a 15-min acquisition and the computed tomography (CT) was performed after PET scanning in the same bed position using the following parameters: frame resolution, 256 × 512; tube voltage, 80 kVp; current, 0.5 mA; and exposure time, 500 ms/frame.
The images were reconstructed by two-dimensional-ordered subsets expectation maximization. The three-dimensional regions of interest (ROIs) were superimposed on the high uptake region in carotid arteries of ApoE-/-mice. The tissue density was presumed as 1 g/ml, and % ID/g was calculated based on the dose injected into the mice.

The target of data set [2] is α7nAChR. Further details: method as in Wang S. et al., 2018. As to conditions: previous experiment, ref Wang S. et al., 2018; cited from earlier work.
Data set [3] has as its target T2, 5-HT3 (Mus musculus, UniProt P23979).
T2 construct: from tissue; host or cells: brain of living CD-1 mice
T2 sequence (P23979 24-489): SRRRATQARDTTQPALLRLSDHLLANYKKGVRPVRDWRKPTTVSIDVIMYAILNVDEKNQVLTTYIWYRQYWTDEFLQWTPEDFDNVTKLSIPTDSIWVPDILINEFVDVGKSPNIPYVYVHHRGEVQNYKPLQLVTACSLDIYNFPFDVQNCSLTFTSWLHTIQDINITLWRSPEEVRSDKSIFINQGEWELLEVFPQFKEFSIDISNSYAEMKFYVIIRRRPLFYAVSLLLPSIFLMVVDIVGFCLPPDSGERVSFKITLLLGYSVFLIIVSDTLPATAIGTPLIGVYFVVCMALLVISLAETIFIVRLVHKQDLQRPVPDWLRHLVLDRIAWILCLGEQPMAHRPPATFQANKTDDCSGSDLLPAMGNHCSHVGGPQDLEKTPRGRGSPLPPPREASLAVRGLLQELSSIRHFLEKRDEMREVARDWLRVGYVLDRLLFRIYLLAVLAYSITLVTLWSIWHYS
Nature of the data set: Blocking experiment with ondansetron pre-injection, brain uptake. The data set is classed as in vivo. As to conditions: ondansetron 2 mg/kg pre-injected 10 min before tracer; CD-1 mice brain, 60 min after injection. As to the method: (§1) To further determine the specific binding of [^18F]YLF-DW to α7nAChR over other similar receptors, blocking experiments were carried out by pre-subcutaneous injection of blocking agents. α4β2nAChR, a heteromeric nAChR subtype widely expressed and 5-HT3, a receptor sharing high sequence homology with α7nAChR, were the most likely receptors to cross binding with α7nAChR ligands. We used the brain tissues of CD-1 mice to do the blocking experiment. Cytisine (1 mg/kg, a selective partial agonist of α4β2nAChR) and ondansetron (2 mg/kg, a selective antagonist of 5-HT3) were pre-injected 5 and 10 min prior to the intravenous injection of [^18F]YLF-DW, respectively. The CD-1 mice were sacrificed at 60 min after the [^18F]YLF-DW injection, and the brain tissues were harvested.

Data set [4] has as its target T3, α4β2nAChR (Mus musculus, UniProt O70174+Q9ERK7).
T3 construct: from tissue; host or cells: brain of living CD-1 mice
As to the kind of experiment: Blocking experiment with cytisine pre-injection, brain uptake. The data set is classed as in vivo. As to conditions: cytisine 1 mg/kg pre-injected 5 min before tracer; CD-1 mice brain, 60 min after injection. As to the method:
as §1

Details of data set [5]: method as in Wang S. et al., 2018. As to conditions: ref Wang S. et al., 2018, cited from earlier work.

T1 sequence (P49582 23-502): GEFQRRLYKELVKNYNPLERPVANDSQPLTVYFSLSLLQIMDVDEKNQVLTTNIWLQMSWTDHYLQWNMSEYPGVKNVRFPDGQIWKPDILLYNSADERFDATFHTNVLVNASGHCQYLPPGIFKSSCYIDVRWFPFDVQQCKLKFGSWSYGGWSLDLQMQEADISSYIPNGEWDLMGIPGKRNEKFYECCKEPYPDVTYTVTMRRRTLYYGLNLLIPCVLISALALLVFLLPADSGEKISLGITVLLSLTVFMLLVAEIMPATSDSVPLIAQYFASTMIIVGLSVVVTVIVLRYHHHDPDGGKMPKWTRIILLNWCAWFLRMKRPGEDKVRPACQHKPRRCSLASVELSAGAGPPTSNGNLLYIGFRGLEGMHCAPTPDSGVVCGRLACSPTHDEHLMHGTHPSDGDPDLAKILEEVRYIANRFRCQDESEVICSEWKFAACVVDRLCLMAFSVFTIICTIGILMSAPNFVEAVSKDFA
T3 sequence (O70174 31-629): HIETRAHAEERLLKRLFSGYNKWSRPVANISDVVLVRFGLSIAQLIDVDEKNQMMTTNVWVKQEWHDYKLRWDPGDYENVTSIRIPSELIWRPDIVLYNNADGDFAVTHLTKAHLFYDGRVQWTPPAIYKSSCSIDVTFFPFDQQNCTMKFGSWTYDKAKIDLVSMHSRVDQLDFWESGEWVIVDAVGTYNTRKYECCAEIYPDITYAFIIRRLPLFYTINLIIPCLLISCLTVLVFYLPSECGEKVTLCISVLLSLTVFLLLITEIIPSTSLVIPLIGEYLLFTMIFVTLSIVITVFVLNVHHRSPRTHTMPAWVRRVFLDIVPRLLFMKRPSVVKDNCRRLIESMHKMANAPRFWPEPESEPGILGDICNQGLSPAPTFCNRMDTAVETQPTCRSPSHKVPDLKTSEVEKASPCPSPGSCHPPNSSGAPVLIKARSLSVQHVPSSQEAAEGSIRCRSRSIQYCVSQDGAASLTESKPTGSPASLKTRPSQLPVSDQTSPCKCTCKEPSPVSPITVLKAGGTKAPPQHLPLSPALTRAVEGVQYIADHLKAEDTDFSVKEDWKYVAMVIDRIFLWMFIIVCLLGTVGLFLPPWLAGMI
T3 sequence (Q9ERK7 26-501): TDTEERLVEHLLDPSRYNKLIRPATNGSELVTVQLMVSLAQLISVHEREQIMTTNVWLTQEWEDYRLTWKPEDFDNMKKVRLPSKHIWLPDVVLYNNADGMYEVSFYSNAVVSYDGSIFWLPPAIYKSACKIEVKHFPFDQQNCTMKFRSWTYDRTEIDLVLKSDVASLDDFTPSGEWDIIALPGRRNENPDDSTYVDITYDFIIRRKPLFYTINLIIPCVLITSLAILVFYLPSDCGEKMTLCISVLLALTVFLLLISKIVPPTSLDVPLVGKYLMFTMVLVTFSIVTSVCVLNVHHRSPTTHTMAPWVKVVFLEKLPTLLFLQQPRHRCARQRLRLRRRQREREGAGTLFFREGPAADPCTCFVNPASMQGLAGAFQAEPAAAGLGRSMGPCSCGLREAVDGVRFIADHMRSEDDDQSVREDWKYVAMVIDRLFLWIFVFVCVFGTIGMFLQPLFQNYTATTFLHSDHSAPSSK

For `O=C1c2cc(N3CCN4CCC3CC4)ccc2-c2cccc([18F])c21` [[^18F]YLF-DW], the “carotid artery plaque imaging signal” value in data set [1] (ApoE-/-mouse, 5.56 MBq i.v., acquisition 1 h after injection) is “obvious in the carotid artery”. Besides, in data set [1] (ApoE-/-mouse, comparison with [^18F]FDG), the “early detection of carotid plaques compared with traditional imaging agent” value is “better than [^18F]FDG”. Also, the “carotid artery imaging signal” value in data set [1] (normal control mice, 5.56 MBq i.v., acquisition 1 h after injection) is listed as “no signal was observed”. In addition, the inhibitory constant (Ki) (usually the equilibrium dissociation constant of an inhibitor or competing ligand from its target) in data set [2] was 2.98 ± 1.41 nM. In addition, the “difference in radioligand uptake, blocked group vs control group” value in data set [3] and in data set [4] was “no significant difference” each time. In data set [5] (15 min post-injection, Kunming mouse), the initial brain uptake is on record as 11.60 ± 0.14 %ID/g. In addition, the brain/blood value in data set [5] (30 min post-injection, Kunming mouse) was 9.57. In addition, the clearance from brain result in data set [5] (Kunming mouse brains) is “fast clearance”.
